# Values quoted from earlier work in patent publication US8632828B2, “Chinese herbal medicine composition used for antiinflammation, detumescence and acesodyne, and preparation method and use thereof” (priority 2009, dated 2014).
# Legend:
# [1] = tested on: mice; conditions: subcutaneous injection
# [2] = tested on: People; conditions: oral administration
# [3] = tested on: melanin tumour; conditions: mice, intraperitoneal injection
# [4] = tested on: ehrlich ascites tumor of mice; conditions: intraperitoneal injection
# [5] = tested on: rats; conditions: intravenous injection
structure (smiles),measurement,setting,value
CCN1C[C@]2(COC)[C@H](O)C[C@H](OC)[C@@]34[C@@H]5C[C@@]6(O)[C@H](OC(=O)c7ccccc7)[C@@H]5[C@@](OC(C)=O)([C@@H]([C@H](OC)[C@H]23)[C@@H]14)[C@@H](O)[C@@H]6OC [Aconitine],LD50,[1],0.32 mg/kg
same,fatal dosage,[2],2~5 mg
Cc1cc(O)c2c(c1)C(=O)c1cc(O)cc(O)c1C2=O [emodin],inhibiting effect on melanin tumour,[3],"injection, have good inhibiting"
same,inhibiting effect on ehrlich ascites tumor,[4],"injection, have good inhibiting"
COc1c2occc2cc2ccc(=O)oc12 [xanthotoxin],LD50,[5],160 mg/kg
COc1c2ccoc2cc2oc(=O)ccc12 [bergapten],LD50,[5],945 mg/kg
COC[C@]12CN(C)[C@@H]3[C@@H]4[C@H](OC)[C@H]1[C@@]3([C@@H](OC)C[C@H]2O)[C@@H]1C[C@@]2(O)[C@H](OC(=O)c3ccccc3)[C@@H]1[C@]4(OC(C)=O)[C@@H](O)[C@@H]2OC [mesaconitine],fatal dosage,[1],fatal dosage was 0.3~0.5 mg/kg.
